{"source": "patent US20170128468A1", "about": "“PHOSPHATIDYLGLYCEROL AS AN ANTI-INFLAMMATORY” (Agusta University Research Institute, Inc., priority 2015, published 2017)", "assay_type_in_all_cases": "cell-based, mouse", "key": {"[1]": {"tested_on": "TNFα protein secretion by RAW264.7 cells", "test": "TNFα protein secretion by ELISA in RAW264.7 culture supernatants", "conditions": "2 h", "method": "Cells were treated with recombinant S100A9 or recombinant HSPB4 as indicated and media collected. TNFα levels were determined in the supernatant using an ELISA kit (BD Biosciences) according to the manufacturer's instructions.\nMouse TNFα ELISA kits from BD Biosciences (San Jose, Calif.) were used. RAW264.7 cells were treated with or without recombinant S100A9 or HSPB4 in the presence and absence of DOPG for 2 hours. Cell culture supernatants were collected and stored at −80° C. and subjected to a single freeze-thaw cycle. The ELISA assay was performed according to the manufacturer's instructions with the optical density detected in each sample within 30 minutes, at a wavelength of 450 nm and corrected at 570 nm."}, "[2]": {"tested_on": "NF-κB phosphorylation/activation in RAW264.7 cells", "test": "Western analysis of NF-κB phosphorylation/activation in RAW264.7 cells stimulated with Pam3CSK4", "conditions": "co-treatment with 100 μg/mL DOPG; 2.5 μg/mL Pam3CSK4; 10 minutes; FIG. 9", "method": "Membranes containing transferred proteins were blocked with 5% non-fat dry milk for at least 30 minutes before incubating with the appropriate primary antibodies, overnight, followed by washing and incubating with secondary antibodies for 1 h at room temperature. Immunoreactivity was visualized using infrared imaging on an Odyssey imaging system (LI-COR Biosciences, Lincoln, Nebr.)."}, "[3]": {"tested_on": "S100A9-induced inflammatory mediator expression in RAW 264.7 macrophage cell line", "test": "qRT-PCR of inflammatory mediator mRNA in RAW 264.7 cells treated with recombinant S100A9", "conditions": "100 μg/mL DOPG with 2 μg/mL S100A9; 2 h; FIGS. 6A-6D", "method": "(§1) Primary cultures of mouse epidermal keratinocytes were prepared from ICR strain CD-1 outbred neonatal mice 1-3 days of age as described in detail in (Bollag W B, et al., J Invest Derm 100 240-246 (1993); Griner R, et al., J Biol Chem, 274 4663-4670 (1999)). All procedures were approved by the Institutional Animal Care and Use Committee. RAW264.7 cells, a mouse macrophage-derived cell line, were kindly provided by Drs. Qing Zhong and Carlos Isales (Augusta University) and were cultured in DMEM containing 10% fetal bovine serum and 1% penicillin and streptomycin.\n(§2) Keratinocytes were treated with or without TPA or a synthetic triacylated lipoprotein (Pam3CSK4), a TLR1/TLR2 agonist, or recombinant S100A9 (R&D Systems) or HSPB4 (MyBiosoruce) as indicated, for 2 hours in the presence and absence of different concentrations of soy PG or dioleoylphosphatidylglycerol (DOPG). Cells were harvested and RNA isolated using PerfectPure RNA tissue kits (5 PRIME, Inc, Gaithersburg, Md., USA) as per the manufacturer's protocol. Following verification of RNA integrity using a Nanodrop instrument (NanoDrop Technologies, Wilmington, Del.), RNA was reverse-transcribed to cDNA with iScript cDNA synthesis kits (Bio-Rad Laboratories, Hercules, Calif., USA) and analyzed by real-time PCR using Taqman primer/probe sets from Applied Biosystems (Life Technologies, Grand Island, N.Y.). […]"}, "[4]": {"tested_on": "HSPB4-induced inflammatory mediator expression in RAW cell line", "test": "qRT-PCR of inflammatory mediator mRNA in RAW 264.7 cells treated with recombinant HSPB4", "conditions": "100 μg/mL DOPG with 0.1 or 1 μg/mL HSPB4; 2 h; FIGS. 7A-7D", "method": "as §1, §2"}, "[5]": {"tested_on": "Pam3CSK4-induced inflammatory mediator expression in keratinocytes", "test": "qRT-PCR of inflammatory mediator mRNA in keratinocytes treated with Pam3CSK4 (TLR1/2 agonist)", "conditions": "DOPG at either 50 or 100 μg/mL; Pam3CSK4 1 or 2.5 μg/mL; 2-hour incubation; FIGS. 1A-1D", "method": "as §1, §2"}, "[6]": {"tested_on": "Pam3CSK4-induced inflammatory mediator expression in macrophage cell line RAW 264.7", "test": "qRT-PCR of inflammatory mediator mRNA in RAW 264.7 macrophage cell line treated with Pam3CSK4", "conditions": "2 h", "method": "as §1\nKeratinocytes were treated with or without TPA or a synthetic triacylated lipoprotein (Pam3CSK4), a TLR1/TLR2 agonist, or recombinant S100A9 (R&D Systems) or HSPB4 (MyBiosoruce) as indicated, for 2 hours in the presence and absence of different concentrations of soy PG or dioleoylphosphatidylglycerol (DOPG). Cells were harvested and RNA isolated using PerfectPure RNA tissue kits (5 PRIME, Inc, Gaithersburg, Md., USA) as per the manufacturer's protocol. Following verification of RNA integrity using a Nanodrop instrument (NanoDrop Technologies, Wilmington, Del.), RNA was reverse-transcribed to cDNA with iScript cDNA synthesis kits (Bio-Rad Laboratories, Hercules, Calif., USA) and analyzed by real-time PCR using Taqman primer/probe sets from Applied Biosystems (Life Technologies, Grand Island, N.Y.). Reactions were performed using Fast Reagent PCR Master Mix (Applied Biosystems) and a StepOnePlus Real-Time PCR System (Applied Biosystems) as instructed by the manufacturer. Expression of genes of interest was determined using the delta-delta Ct method normalized to the expression of GAPDH as the endogenous housekeeping gene and expressed relative to the appropriate control group."}, "[7]": {"conditions": "co-treatment with DOPG 100 μg/mL"}}}
{"smiles": "CCCCCCCC/C=C\\CCCCCCCC(=O)OC[C@H](COP(=O)(O)OCC(O)CO)OC(=O)CCCCCCC/C=C\\CCCCCCCC", "note": "(stereo partly drawn) [DOPG, dioleoylphosphatidylglycerol]", "values": [{"measurement": "S100A9-induced increase in TNFα protein secretion", "setting": "[1]; 100 μg/mL DOPG with 2 μg/mL S100A9, FIG. 8A", "result": "inhibited"}, {"measurement": "HSPB4-induced increase in TNFα protein secretion", "setting": "[1]; 100 μg/mL DOPG with 0.1 or 1 μg/mL HSPB4, FIG. 8B", "result": "inhibited"}, {"measurement": "Pam3CSK4-increased phosphorylation/activation of NF-κB", "setting": "[2]", "result": "inhibited"}, {"measurement": "S100A9-induced increase in inflammatory mediator expression", "setting": "[3]", "result": "inhibit"}, {"measurement": "HSPB4 induction of inflammatory mediator expression", "setting": "[4]", "result": "inhibited"}, {"measurement": "Pam3CSK4-induced increase in the expression of all cytokines tested (IL1α, IL1β, IL6, TNFα mRNA)", "setting": "[5]", "result": "significantly inhibited"}, {"measurement": "Pam3CSK4-induced IL1α expression", "setting": "[6]; DOPG 50 μg/mL", "result": "inhibited"}, {"measurement": "Pam3CSK4-induced IL1β expression", "setting": "[6]; DOPG 50 μg/mL", "result": "inhibited"}, {"measurement": "Pam3CSK4 induction of TNFα", "setting": "[6]; DOPG 50 or 100 μg/mL", "result": "no effect"}, {"measurement": "Pam3CSK4-induced IL1α mRNA level", "setting": "[6]; [7]", "result": "inhibition"}, {"measurement": "Pam3CSK4-induced IL1β mRNA level", "setting": "[6]; [7]", "result": "inhibition"}, {"measurement": "Pam3CSK4-induced IL6 mRNA level", "setting": "[6]; [7]", "result": "inhibition"}]}
